BindingDB's records for doi:10.1021/jm020901d (Eli Lilly, 2002)

Target: T1, Glutamate racemase (Limosilactobacillus fermentum, UniProt Q03469)
T1 sequence (Q03469 whole entry): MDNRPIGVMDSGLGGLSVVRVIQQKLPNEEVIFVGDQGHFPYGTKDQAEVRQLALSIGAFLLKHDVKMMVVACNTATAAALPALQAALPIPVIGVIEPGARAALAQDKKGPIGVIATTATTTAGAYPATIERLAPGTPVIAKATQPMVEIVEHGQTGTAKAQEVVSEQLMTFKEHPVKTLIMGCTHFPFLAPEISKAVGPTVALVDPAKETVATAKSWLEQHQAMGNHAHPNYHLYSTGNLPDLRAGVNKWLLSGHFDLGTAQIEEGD
Assay: Binding affinity against Glutamate Racemase

- Ki: 16 nM
Structure (SMILES): N[C@H](C[C@H](Cc1ccc2ccccc2c1)C(=O)O)C(=O)O [2-Amino-4-naphthalen-2-ylmethyl-pentanedioic acid]
